Reference: the NIST ThermoML archive (doi:10.1021/je0502344)
Numbers after ± are expanded uncertainties.

Legend:
[1] = xn = mol fraction of the nth substance listed; conditions: 101.33 kPa, Liquid
[2] = 101.33 kPa, Liquid

CCO [ethanol] + CCCCCCCCCC=O
[1], x2 = 0
Conditions	mass density [kg/m3]	viscosity [mPa·s]
298.15 K	785.08 ± 2.9	1.088 ± 0.034
308.15 K	778.09 ± 3.2	0.897 ± 0.028
318.15 K	763.91 ± 3.5	0.767 ± 0.024

CCCCCCCC=O [octanal]
[2]
Conditions	mass density [kg/m3]	viscosity [mPa·s]
298.15 K	821.07 ± 3	1.2 ± 0.038
308.15 K	807.34 ± 3.4	1.074 ± 0.034
318.15 K	793.85 ± 3.7	0.965 ± 0.03

CCCCCCCCCC=O [decanal]
[2]
Conditions	mass density [kg/m3]	viscosity [mPa·s]
298.15 K	801.24 ± 10	1.56 ± 0.049
308.15 K	789.05 ± 10	1.412 ± 0.044
318.15 K	776.18 ± 11	1.281 ± 0.04

CCCCCCCCC=O [nonanal] + CCO
[1]
Conditions	mass density, 298.15 K [kg/m3]	mass density, 308.15 K [kg/m3]	mass density, 318.15 K [kg/m3]	viscosity, 298.15 K [mPa·s]	viscosity, 308.15 K [mPa·s]	viscosity, 318.15 K [mPa·s]
x1 = 0.1034	787.7 ± 2.9	780.37 ± 3.2	766.24 ± 3.5	1.116 ± 0.035	0.928 ± 0.029	0.798 ± 0.025
x1 = 0.2039	790.72 ± 2.9	782.99 ± 3.2	768.92 ± 3.5	1.144 ± 0.036	0.96 ± 0.03	0.83 ± 0.026
x1 = 0.293	793.79 ± 2.9	785.65 ± 3.2	771.64 ± 3.5	1.169 ± 0.037	0.989 ± 0.031	0.859 ± 0.027
x1 = 0.3939	797.7 ± 2.9	789.05 ± 3.3	775.11 ± 3.6	1.199 ± 0.038	1.023 ± 0.032	0.893 ± 0.028
x1 = 0.5045	802.52 ± 3	793.24 ± 3.3	779.4 ± 3.6	1.232 ± 0.039	1.061 ± 0.033	0.931 ± 0.029
x1 = 0.5943	806.85 ± 3	797 ± 3.3	783.24 ± 3.6	1.26 ± 0.04	1.093 ± 0.034	0.964 ± 0.03
x1 = 0.7116	813.07 ± 3	802.4 ± 3.3	788.76 ± 3.6	1.297 ± 0.041	1.137 ± 0.036	1.009 ± 0.032
x1 = 0.7855	817.31 ± 3	806.08 ± 3.3	792.53 ± 3.6	1.32 ± 0.041	1.165 ± 0.037	1.038 ± 0.033
x1 = 0.898	824.25 ± 3.1	812.11 ± 3.4	798.69 ± 3.7	1.357 ± 0.043	1.209 ± 0.038	1.084 ± 0.034
x1 = 1	831.04 ± 3.1	818.01 ± 3.4	804.72 ± 3.7	1.392 ± 0.044	1.251 ± 0.039	1.127 ± 0.035

CCO [ethanol]
[2]
Conditions	mass density [kg/m3]	viscosity [mPa·s]
298.15 K	785.08 ± 2.9	1.088 ± 0.034
308.15 K	778.09 ± 3.2	0.897 ± 0.028
318.15 K	763.91 ± 3.5	0.767 ± 0.024

CCO [ethanol] + CCCCCCCCC=O
[1], x2 = 0
Conditions	mass density [kg/m3]	viscosity [mPa·s]
298.15 K	785.08 ± 2.9	1.088 ± 0.034
308.15 K	778.09 ± 3.2	0.897 ± 0.028
318.15 K	763.91 ± 3.5	0.767 ± 0.024

CCCCCCCC=O [octanal] + CCO
[1]
Conditions	mass density, 298.15 K [kg/m3]	mass density, 308.15 K [kg/m3]	mass density, 318.15 K [kg/m3]	viscosity, 298.15 K [mPa·s]	viscosity, 308.15 K [mPa·s]	viscosity, 318.15 K [mPa·s]
x1 = 0.1077	787.23 ± 2.9	779.83 ± 3.2	765.7 ± 3.5	1.1 ± 0.035	0.915 ± 0.029	0.786 ± 0.025
x1 = 0.2019	789.45 ± 2.9	781.64 ± 3.2	767.54 ± 3.5	1.11 ± 0.035	0.93 ± 0.029	0.803 ± 0.025
x1 = 0.3178	792.62 ± 2.9	784.21 ± 3.2	770.18 ± 3.5	1.122 ± 0.035	0.95 ± 0.03	0.825 ± 0.026
x1 = 0.3977	795.08 ± 2.9	786.22 ± 3.2	772.23 ± 3.5	1.131 ± 0.036	0.964 ± 0.03	0.84 ± 0.026
x1 = 0.4952	798.4 ± 2.9	788.92 ± 3.3	774.99 ± 3.6	1.142 ± 0.036	0.981 ± 0.031	0.859 ± 0.027
x1 = 0.6115	802.81 ± 3	792.5 ± 3.3	778.66 ± 3.6	1.155 ± 0.036	1.001 ± 0.031	0.883 ± 0.028
x1 = 0.7003	806.51 ± 3	795.5 ± 3.3	781.74 ± 3.6	1.165 ± 0.037	1.018 ± 0.032	0.901 ± 0.028
x1 = 0.798	810.9 ± 3	799.07 ± 3.3	785.39 ± 3.6	1.176 ± 0.037	1.036 ± 0.033	0.921 ± 0.029
x1 = 0.9089	816.3 ± 3	803.46 ± 3.3	789.88 ± 3.6	1.189 ± 0.037	1.057 ± 0.033	0.945 ± 0.03
x1 = 1	821.07 ± 3	807.34 ± 3.4	793.85 ± 3.7	1.2 ± 0.038	1.074 ± 0.034	0.965 ± 0.03

CCCCCC=O [hexanal]
[2]
Conditions	mass density [kg/m3]	viscosity [mPa·s]
298.15 K	833.12 ± 3.1	0.805 ± 0.025
308.15 K	818.94 ± 3.4	0.716 ± 0.023
318.15 K	804.31 ± 3.7	0.639 ± 0.02

CCO [ethanol] + CCCCCCCC=O
[1], x2 = 0
Conditions	mass density [kg/m3]	viscosity [mPa·s]
298.15 K	785.08 ± 2.9	1.088 ± 0.034
308.15 K	778.09 ± 3.2	0.897 ± 0.028
318.15 K	763.91 ± 3.5	0.767 ± 0.024

CCO [ethanol] + CCCCCC=O
[1], x2 = 0
Conditions	mass density [kg/m3]	viscosity [mPa·s]
298.15 K	785.08 ± 2.9	1.088 ± 0.034
308.15 K	778.09 ± 3.2	0.897 ± 0.028
318.15 K	763.91 ± 3.5	0.767 ± 0.024

CCCCCC=O [hexanal] + CCO
[1]
Conditions	mass density, 298.15 K [kg/m3]	mass density, 308.15 K [kg/m3]	mass density, 318.15 K [kg/m3]	viscosity, 298.15 K [mPa·s]	viscosity, 308.15 K [mPa·s]	viscosity, 318.15 K [mPa·s]
x1 = 0.1094	788 ± 2.9	780.57 ± 3.2	766.36 ± 3.5	1.053 ± 0.033	0.875 ± 0.028	0.752 ± 0.024
x1 = 0.2049	791.01 ± 2.9	783.13 ± 3.2	768.9 ± 3.5	1.023 ± 0.032	0.857 ± 0.027	0.739 ± 0.023
x1 = 0.3226	795.33 ± 2.9	786.81 ± 3.2	772.53 ± 3.5	0.987 ± 0.031	0.834 ± 0.026	0.723 ± 0.023
x1 = 0.4037	798.69 ± 2.9	789.67 ± 3.3	775.36 ± 3.6	0.963 ± 0.03	0.819 ± 0.026	0.712 ± 0.022
x1 = 0.5027	803.22 ± 3	793.52 ± 3.3	779.17 ± 3.6	0.935 ± 0.029	0.801 ± 0.025	0.7 ± 0.022
x1 = 0.6207	809.24 ± 3	798.64 ± 3.3	784.23 ± 3.6	0.902 ± 0.028	0.78 ± 0.025	0.685 ± 0.022
x1 = 0.7108	814.29 ± 3	802.93 ± 3.3	788.47 ± 3.6	0.878 ± 0.028	0.764 ± 0.024	0.674 ± 0.021
x1 = 0.81	820.3 ± 3	808.04 ± 3.4	793.53 ± 3.7	0.852 ± 0.027	0.747 ± 0.024	0.662 ± 0.021
x1 = 0.9226	827.69 ± 3.1	814.32 ± 3.4	799.74 ± 3.7	0.824 ± 0.026	0.729 ± 0.023	0.648 ± 0.02
x1 = 1	833.12 ± 3.1	818.94 ± 3.4	804.31 ± 3.7	0.805 ± 0.025	0.716 ± 0.023	0.639 ± 0.02

CCCCCCCCC=O [nonanal]
[2]
Conditions	mass density [kg/m3]	viscosity [mPa·s]
298.15 K	831.04 ± 5	1.392 ± 0.044
308.15 K	818.01 ± 5.1	1.251 ± 0.039
318.15 K	804.72 ± 5.3	1.127 ± 0.035

CCCCCCCCCC=O [decanal] + CCO
[1]
Conditions	mass density, 298.15 K [kg/m3]	mass density, 308.15 K [kg/m3]	mass density, 318.15 K [kg/m3]	viscosity, 298.15 K [mPa·s]	viscosity, 308.15 K [mPa·s]	viscosity, 318.15 K [mPa·s]
x1 = 0.1011	785.98 ± 2.9	778.7 ± 3.2	764.59 ± 3.5	1.128 ± 0.035	0.939 ± 0.03	0.808 ± 0.025
x1 = 0.2102	787.14 ± 2.9	779.48 ± 3.2	765.47 ± 3.5	1.174 ± 0.037	0.987 ± 0.031	0.854 ± 0.027
x1 = 0.3013	788.25 ± 2.9	780.24 ± 3.2	766.32 ± 3.5	1.213 ± 0.038	1.028 ± 0.032	0.895 ± 0.028
x1 = 0.412	789.78 ± 2.9	781.28 ± 3.2	767.48 ± 3.5	1.262 ± 0.04	1.081 ± 0.034	0.947 ± 0.03
x1 = 0.5105	791.31 ± 2.9	782.32 ± 3.2	768.64 ± 3.5	1.308 ± 0.041	1.131 ± 0.036	0.997 ± 0.031
x1 = 0.5836	792.55 ± 2.9	783.15 ± 3.2	769.58 ± 3.5	1.343 ± 0.042	1.169 ± 0.037	1.035 ± 0.033
x1 = 0.6889	794.48 ± 2.9	784.47 ± 3.2	771.05 ± 3.5	1.395 ± 0.044	1.226 ± 0.038	1.092 ± 0.034
x1 = 0.8008	796.73 ± 2.9	785.99 ± 3.2	772.76 ± 3.5	1.452 ± 0.045	1.29 ± 0.04	1.157 ± 0.036
x1 = 0.9145	799.23 ± 2.9	787.68 ± 3.2	774.65 ± 3.6	1.513 ± 0.047	1.358 ± 0.043	1.226 ± 0.038
x1 = 1	801.24 ± 3	789.05 ± 3.3	776.18 ± 3.6	1.56 ± 0.049	1.412 ± 0.044	1.281 ± 0.04
